Here are results for 14 molecules from patent US8877889B2, “Tumor cell-killing peptides” (Industry-Academic Cooperation Foundation, Chosun University, priority 2009, dated 2014).

Holding throughout (assay type): cell-based
The subject of test [1] is CT26 mouse colon carcinoma cells. In words: Tumor cell killing activity, bright field images. The following applies: 10 μM peptide (FIG. 9A). The method, then: (A) CT26 cells were treated with 10 μM MTD, TU1:MTD, TU2:MTD, or TU3:MTD peptides, and bright field images for indicated peptides were obtained at indicated time points. Representative images of at least 3 individual experiments were presented.

Test [2] deals with HeLa cells. In words: Cell death after transfection of Noxa constructs, counting EGFP-positive dead cells. The following applies: for cell death-inducing activity of leucine substitution mutants 4Lmt, 5Lmt: HeLa cells transfected (FIG. 8A); for cell death-inducing activity of Noxa point mutants: 20 hours after transfection (FIG. 3B); for cell death after over-expression: within 11 hrs after transfection (FIG. 1D). The method, then: (D) HeLa cells were transfected with deletion mutants of Noxa. At 11 hrs, 24 hrs, and 36 hrs after transfection, cell death was determined by counting EGFP-positive dead cells with morphological changes using the fluorescent microscope.
(B) HeLa cells were transfected with WT or with the indicated Noxa mutants. 20 hours after transfection cell death was determined by counting the EGFP-positive dead and survived cells under the fluorescent microscope.
(A) HeLa cells were transfected with either WT Noxa, 4Lmt (L42A, L43A, L45A, L49A), or 5Lmt (L29A, L42A, L43A, L45A, L49A) constructs. At the indicated times after transfection, cell death was determined by counting the EGFP-positive dead cells with morphological changes under the fluorescent microscope.
HeLa cells were transfected with EGFP-Noxa WT and 41-54 in combination with Bcl-2 expression plasmid or in the presence of zVAD-fmk (25 μM). 18 hours after transfection, cell death was determined by counting EGFP-positive dead cells with morphological changes using the fluorescent microscope. Data represent an average±SD of three experiments each with 200 total cells counted.
The percentage of cell death was determined by counting EGFP-positive dead cells with morphology using the fluorescent microscope. Minimally, 300 cells in three separate fields were counted for each measurement.

The test system of test [3] is HeLa cells. The experiment in a line: Mitochondrial localization of Noxa mutants, confocal microscopy. To be noted: confocal microscopic image analysis. An excerpt:
(B) HeLa cells were co-transfected with the pDsRed2-Mito and either Noxa 4Lmt or Noxa 5Lmt. 18 hrs after transfection the mitochondrial morphology was observed under the laser confocal microscope.

The test system of test [4] is HeLa cells. The experiment in a line: Caspase activation, western blot of cell lysates. To be noted: 5 μM peptide. The protocol:
(E) After treatment with the MTD peptide, MTDmt4, or MTDmt5 (5 μM) in HeLa cells, cell lysates were prepared at indicated times. Equal amounts of proteins were subjected to the SDS-PAGE and blotted onto PVDF membrane. After blocked with 5% nonfat milk in TBST (10 mM Tris-HCl, pH 7.5, 100 mM NaCl and 0.1% Tween-20), the membrane was probed with anti-caspase-3 (SantaCruz Biotechnology, Inc., Santa Cruz, Calif., USA), anti-caspase-8 (Cell signaling technology, Beverly, Mass., USA), anti-caspase-9 (SantaCruz Biotechnology, Inc., Santa Cruz, Calif.), anti-XIAP (Upstate Biotechnology, Dundee, United Kingdom), or anti-Bid (home-made) antibodies. Anti-actin antibody (Chemicon International, Inc., Temecula, Calif., USA) was used as equal loading control.

The test system of test [5] is HeLa cells. The experiment in a line: Peptide-induced cell death, counting dead and survived cells under the light microscope. To be noted: peptides 10 μM, 20 μM, 30 μM, 10 minutes after treatment (FIG. 1B, 3A). The protocol:
(B) HeLa cells were treated with DMSO or the indicated peptides in increasing doses (10 μM, 20 μM, and 30 μM). % of cell death was determined at 10 minutes after treatment by counting the dead cells and survived cells under the light microscope.
(E) HeLa cells were transfected with substitution mutants of MTD peptide.
HeLa cells were treated with DMSO or with the indicated peptides at increasing doses (10 μM, 20 μM, or 30 μM). % cell death was determined 10 minutes after treatment by counting the dead cells and survived cells (300 cells per sample) under the light microscope.
(D) HeLa cells were treated with indicated amounts of MTD peptide for 1 hour, 2 hours, or 5 hours. % cell death was calculated by counting the dead cells and survived cells (200 to 500 cells per sample) under the light microscope. Data represent the means±SD of three independent experiments.

The test system of test [6] is HeLa cells. In words: Measurement of intracellular calcium with Fluo-4-AM. The following applies: 3 μM peptide. The method, then:
(A-C) HeLa cells were loaded with 3 μM Fluo-4-AM for 30 minutes and then treated with 3 μM of indicated peptides (A: MTD, B: MTDmt3, C: MTDmt5). Fluorescence images and bright-field images were obtained with the laser scanning confocal microscope at 5-second intervals for 5 minutes. Relative fluorescence intensities (F/F0) at two region-of-interests (ROI 1 and 2) were measured at 5-second intervals for 5 minutes.
(E-G) HeLa cells were pretreated in calcium free KRB media alone (E), in KRB media with 10 μM 2-APB and 20 μM Ryanodine (F), or in KRB media with freshly made 30 μM CsA (G) for 2 hours. HeLa cells were then loaded with 3 μM Fluo-4-AM for 30 minutes and treated with 3 μM of MTD peptide. Images were obtained with the laser scanning confocal microscope at 5-second intervals for 5 minutes. Relative fluorescence intensities (F/F0) at two region-of-interests (ROI 1 and 2) were measured at 5-second intervals for 5 minutes.
For Ca^2+ measurements in the cytosol, HeLa cells were cultured in an Lab-Tek™ Chamber glass slide and loaded with Fluo-4-AM (Fluo-4-acetoxymethyl ester) at a final concentration of 3 μM for 30 minutes, followed by washing with PBS (Phosphate buffered saline) at pH 7.4 and the addition of fresh Ca^2+-free Krebs-ringer modified buffer (KRB: 125 mM NaCl, 5 mM KCl, 1 mM Na3PO4, 1 mM MgSO4, 5.5 mM glucose, and 20 mM HEPES, pH 7.4, at 37° C.) containing the indicated peptides. Time-lapse images were obtained at 488 nm excitation with the Argon laser scanning confocal microscope (Leica TCS SP5 Microsystems, Mannheim, Germany) at 10-second intervals for 5 minutes to visualize Fluo-4-AM.

In the next test the test system is NCI-H460 cells. The experiment in a line: Peptide-induced cell death in NCI-H460 cells. To be noted: 5 μM, 2 or 5 hours (FIG. 3C). The method, then:
(C) NCI-H460 cells were treated with indicated peptides for 2 hours or 5 hours. % cell death was determined as described above.

Test [7] has as its system HeLa cells. The experiment in a line: Live cell images and annexin V / SYTOX Green staining of dying cells. The following applies: MTD peptide 10 μM or TRAIL 100 ng/ml (FIG. 2A, 7A, 7B). The method, then: (A) HeLa cells were treated with MTD peptides (10 μM), or TRAIL (100 ng/ml). Images were taken at the indicated times (upper panel). Jurkat cells were treated with MTD peptide (10 μM) for 10 minutes, cells were processed for TEM. Images were obtained with 4,000× magnification (lower panel). N: nucleus, M: mitochondrion.
(D) HeLa cells were treated with the MTD (5 μM) peptide with or without the pretreatment of 10 μM BAPTA-AM for 2 hours. Live cell images were serially acquired at 10-second intervals for 10 minutes and shown at the indicated times.
(A) HeLa cells were stained with FITC-conjugated Annexin V antibody at 10 minutes after DMSO or MTD treatment. Images were obtained under the confocal microscope.
(B) HeLa cells were stained with SYTOX Green 10 minutes after DMSO or MTD treatment. Images were obtained using confocal microscope.

Entries after “also recorded” stand apart in the source; their conditions may differ.

Turning to CNGRCGGKLLNLISKLF [TU1:MTD], in test [1], the “tumor cell killing activity” value is “no or little killing activity”.
Consider “4Lmt: Noxa mutant with L42A, L43A, L45A and L49A (MPGKKARKNAQPSPARAPAELEVECATQLRRFGDKLNFRQKAANAISKAFCSGT; UniProt Q13794 1-54, looked up, variant L42A L43A L45A L49A)”, for which the “cell death-inducing activity of leucine substitution mutants 4Lmt, 5Lmt” value with HeLa cells [2] is on record as “almost completely lost all of the cell death-inducing activity”. Also, the mitochondrial localization entry in the test with HeLa cells [3] is listed as “loss of Noxa mitochondrial localization”.
With “3Lmt: Noxa triple substitution L45A, L49A and L29A (MPGKKARKNAQPSPARAPAELEVECATQARRFGDKLNFRQKLLNAISKAFCSGT; UniProt Q13794 1-54, looked up, variant L29A L45A L49A)”, the “cell death-inducing activity of Noxa point mutants” value with HeLa cells [2] (HeLa cells) is given as “remarkably reduced the cell death-inducing activities”.
In the case of “L45A (MPGKKARKNAQPSPARAPAELEVECATQLRRFGDKLNFRQKLLNAISKLFCSGT; UniProt Q13794 1-54, looked up, variant L45A)”, in the test on HeLa cells [2] (HeLa cells), the “cell death-inducing activity of Noxa point mutants” value is given as “remarkably reduced the cell death-inducing activities”. Besides, the mitochondrial localization result in the test with HeLa cells [3] is listed as “maintained the typical mitochondrial localization of Noxa”.
As for “21-40: Noxa deletion mutant containing only the BH3 domain (LEVECATQLRRFGDKLNFRQ; UniProt Q13794 21-40, looked up, fragment)”, the “cell death-inducing activity after over-expression, with increasing time” value with HeLa cells [2] (HeLa cells, 24 hrs and 36 hrs after transfection (FIG. 1D)) is “strong cell death-inducing activity”. Also, in the test with HeLa cells [2] (HeLa cells, data not shown), the “membrane morphology of transfected cells” value was “membrane blebbings”. For the same molecule, the “cell death after over-expression” value with HeLa cells [2] (HeLa cells) is recorded as “induced little cell death within 11 hrs”.
On to “5Lmt: Noxa mutant with L29A, L42A, L43A, L45A and L49A (MPGKKARKNAQPSPARAPAELEVECATQARRFGDKLNFRQKAANAISKAFCSGT; UniProt Q13794 1-54, looked up, variant L29A L42A L43A L45A L49A)”, for which, in the test with HeLa cells [2], the “cell death-inducing activity of leucine substitution mutants 4Lmt, 5Lmt” value is listed as “almost completely lost all of the cell death-inducing activity”. The mitochondrial localization result in the test with HeLa cells [3] is reported as “loss of Noxa mitochondrial localization”.
As to “RRRRRRRRGRQKLLNLIAALF (PTD-MTDmt4 fusion peptide derived from Homo sapiens)”, in the test on HeLa cells [4], the caspase activation entry is listed as “not activated”. Besides, the “cell death-inducing activity (% of cell death)” value in the test with HeLa cells [5] was “maintaining the killing activity”.
Consider “L43A (MPGKKARKNAQPSPARAPAELEVECATQLRRFGDKLNFRQKLANLISKLFCSGT; UniProt Q13794 1-54, looked up, variant L43A)”, for which the mitochondrial localization entry in the test on HeLa cells [3] is listed as “maintained the typical mitochondrial localization of Noxa”.
“1-30: Noxa deletion mutant which did not contain any domains (MPGKKARKNAQPSPARAPAELEVECATQLR; UniProt Q13794 1-30, looked up, fragment)”: the “cell death after over-expression” value in the test with HeLa cells [2] (HeLa cells) is given as “no effect on cell death”.
In the case of “RRRRRRRRGRQKLLNAASKLF (PTD-MTDmt3 fusion peptide derived from Homo sapiens)”, the “cytosolic calcium level change” value with HeLa cells [6] is on record as “did not induce changes in the cytosolic calcium level”. Moreover, the “susceptibility of cells to peptide” value in the test on NCI-H460 cells is reported as “not”. In addition, the “cell death-inducing activity (% of cell death)” value in the test with HeLa cells [5] was “completely lost their cell death-inducing activities; also recorded: no cell death”.
With “L42A (MPGKKARKNAQPSPARAPAELEVECATQLRRFGDKLNFRQKALNLISKLFCSGT; UniProt Q13794 1-54, looked up, variant L42A)”, in the test on HeLa cells [3], the mitochondrial localization entry is recorded as “maintained the typical mitochondrial localization of Noxa”.
For the molecule “L29A: Noxa single substitution in the BH3 domain (MPGKKARKNAQPSPARAPAELEVECATQARRFGDKLNFRQKLLNLISKLFCSGT; UniProt Q13794 1-54, looked up, variant L29A)”, the “cell death-inducing activity of Noxa point mutants” value in the test with HeLa cells [2] (HeLa cells) is “remarkably reduced the cell death-inducing activities”.
Regarding “L49A (MPGKKARKNAQPSPARAPAELEVECATQLRRFGDKLNFRQKLLNLISKAFCSGT; UniProt Q13794 1-54, looked up, variant L49A)”, the “cell death-inducing activity of Noxa point mutants” value in the test on HeLa cells [2] (HeLa cells) is “remarkably reduced the cell death-inducing activities”. The mitochondrial localization result in the test with HeLa cells [3] was “maintained the typical mitochondrial localization of Noxa”.

B1: TRAIL (protein, UniProt P50591 1-281, looked up)
Tumor necrosis factor ligand …: MAMMEVQGGPSLGQTCVLIVIFTVLLQSLCVAVTYVYFTNELKQMQDKYSKSGIACFLKEDDSYWDPNDEESMNSPCWQVKWQLRQLVRKMILRTSEETISTVQEKQQNISPLVRERGPQRVAAHITGTRGRSNTLSSPNSKNEKALGRKINSWESSRSGHSFLSNLHLRNGELVIHEKGFYYIYSQTYFRFQEEIKENTKNDKQMVQYIYKYTSYPDPILLMKSARNSCWSKDAEYGLYSIYQGGIFELKENDRIFVSVTNEHLIDMDHEASFFGAFLVG
notes: apoptosis inducer used at 100 ng/ml for comparison
Consider B1, for which the “morphology of dying cells” value in the test with HeLa cells [7] is listed as “membrane shrinkage of apoptotic cells”.
